The text below walks through data of US5622725A, “Wound disinfection and repair” (Alcide Corporation, priority 1996, dated 1997).

Data set [1] relates to Staphylococcus epidermidis biofilms. Put plainly: Sterilization of S. epidermidis biofilms, minimal exposure time at 22° C. (supravital dye, confirmed by culture). The settings on record: 22° C. It counts as cell-based. An excerpt:
This example compares and contrasts the cidal effectiveness of compositions of the invention with other disinfectants and antibiotics against Staphylococcus epidermidis biofilms, which are frequently observed on the surface of C.A.P.D. peritoneal catheters even in the absence of peritonitis or exit site infections.
A strain of S. epidermidis with characteristic abundant slime production, and derived from a human source, is used to prepare the biofilms. The isolate is fully sensitive in the fluid phase to all commonly used antibiotics as assayed using routine test methods. Aliquots of the bacteria are frozen at -70° C. in 10% glycerol broth or propagated on 5% defibrinated horse blood agar. Standardized biofilms are formed on soda glass microscope slides or slides coated with Silastic® (the basic material of indwelling catheters; see Cecil's, cited above, on page 542), placed in Petri dishes containing 20 ml of tryptone soya broth (Oxoid Ltd., England), seeded with 10^4 cfu S. epidermidis and incubated for 18 hours at 37° C. Reproducible uniform and confluent S. epidermidis biofilms of minimal density are formed.
Antibiotic activity against S. epidermidis biofilms are determined using a supravital dye which acts as an electron acceptor in coupled oxidative systems in biofilm bacteria. The method allows the bacteria to be examined undisturbed within the biofilm matrix in situ. Briefly stated, the biofilms are exposed to antibiotic solutions and incubated at […] for varying periods of time. Positive (viable, 1% peptone water) and negative (sterilized, 4% formol-peptone) controls are included in all experiments. After a designated exposure at 22° C. for varying periods of time between 15 seconds to 6 hours, the biofilms are rinsed twice in sterile water and allowed to drain. They are then placed in a flat agar medium incorporating substantive dyes and incubated at 37° C. for 4 hours, then 24 hours. Viability is assessed visually by a change in dye color and confirmed after 24 hours by mechanically scraping and subsequently culturing the biofilms. Sterilization is indicated by the absence of color changes and confirmed by culture of both intact and mechanically fragmented biofilms. Inhibition of growth is indicated by a lack of color change after a 4-hour incubation and confirmed by a positive color change by 24 hours.

Data set [2] has as its system lactobacilli, streptococci, coliforms, Klebsiella species, Enterobacter species, Bacteroides species, clostridia and eubacteria. Put plainly: Broad-spectrum antimicrobial activity. It counts as cell-based. The settings on record: aerobic and anaerobic. The source says:
In one embodiment, the present invention is directed to the use of effective amounts of chlorine dioxide as a peritoneal cavity irrigant. The enteric organisms which enter the peritoneal cavity through contamination by gastrointestinal contact, whether by physical trauma or during surgery, are all susceptible to the cidal effects of chlorine dioxide, which is a broad-spectrum antimicrobial. […] However, as mentioned in the Introduction, addition of antibiotics to the irrigating solution has not provided any additional benefit (Hau and Nishikawa, cited above), and it is presumed that the peritoneal irrigation derives from its mechanical effect. The ineffectivenss of local antibiotic solutions has been surprising to researchers, since the antibiotics that have been used were capable of in vitro inhibition of the bacterial species present in the peritoneal cavity. It may be that the lack of effect was attributable to the brevity of contact of the antibiotic with the organisms, since usual flush times approximate five minutes or less in duration, which would be too short for significant cidal action to occur.

Data set [3] in a line: Free radical signal by luminometer (modified luminol assay). The conditions noted are these: One hundred-fold dilutions, within one minute after mixing. Here is the method: ClO2 (75 ppm) is generated by mixing 0.25% chlorite and 1.4% lactic acid. One hundred-fold dilutions are tested within one minute after mixing using electron paramagnetic spectroscopy (ESR) and a LKB luminometer.
The luminometer assay utilizes a modified luminol assay for radical detection. Luminol (LH2) reacts with free radicals (R·) as follows: […]
LOO^- →L2 + AP* (aminophthalate dianion, active state)
The pH optimum for the reaction is 10 to 12. The assay is standardized with an enzymatic system in which the generation of free radicals could be quantified by measuring generation of ·O2^-, obtained with the following reaction, […]
hypoxanthine+xanthine oxidase→urate+·O2^- by the reduction of ferricytochrome C.

In data set [4] the test system is cows' udders. Put plainly: Infusion into cows' udders, immune response. It counts as in vivo, cow. The conditions noted are these: 350 ppm in buffered saline. The source says: It is an advantage of the invention that solutions containing fairly significant levels of ClO2 are particularly well tolerated by tissues. […] ClO2 is capable of being reduced to lower oxidation states, such as chlorite and chloride, upon contact with organic materials, but is less reactive than, for example, hypochlorite, and a volume of ClO2 -containing saline is expected to retain significant antimicrobial activity when used to flush out organic debris from an incised area. Appropriate use levels of ClO2 will vary, depending on the amount of organic detritus in the site, but generally concentrations of about 5 to 250 ppm in approximately isotonic solution can be used with good effect.

Data set [5] relates to mammalian tissue. In words: Tolerance by mammalian tissue (eye irrigant, udder infusion, uterine douche). Format: in vivo, rabbits, cow, mares. The settings on record: 50 ppm. The source says:
The materials in the table which are as effective as the 50 ppm ClO2 solution are ones that would be considered to be too irritating and/or corrosive for use as an irrigant in a peritoneal cavity.

Data set [6] concerns peritoneal cavity. The settings on record: infused into the peritoneal cavity and other body cavities; per Ser. No. 08/133,465 and U.S. Pat. No. 5,252,343; cited from earlier work.

As to `[O][Cl+][O-]` [ClO2, chlorine dioxide], the “Exposure Time (22° C.) for Film Sterilization” value in data set [1] turned out to be 5 s. The “demonstrated activity against organisms” value in data set [2] is “demonstrated activity against all relevant organisms, both aerobic and anaerobic”. Moreover, the free radical signal entry in data set [3] is listed as “A strong free radical signal is generated”. Moreover, the “safety of infusion / immune response” value in data set [4] was “safely infusable into cows' udders without stimulation of any immune response”. The “tolerance by mammalian tissue” value in data set [5] is “well tolerated by mammalian tissue”. In addition, the “inflammatory response on infusion” value in data set [6] is “without evoking the inflammatory response”.
